Experimental data published in patent publication US4880941A, “Trittum labelled compound, its preparation and its use in the determination of the affinity of retinoids for their cellular receptor” (priority 1986, dated 1989).

Legend:
[1] = biological target: T1, cRABP (cellular Retinoic Acid-Binding Protein) (Rattus norvegicus, UniProt P62966); experiment: Saturation test: fixation of ligand on soluble cRABP of rat testicle homogenate; design: a homogenate of rat testicles (organ rich in cRABP); from tissue; host or cells: rat testicles (homogenate), inferred from the saturation test; settings: for nonspecific fixation (% of the total fixation): in the presence of a large excess (1 μM) of retinoic acid, ligand up to 50 nM
T1 sequence (P62966 whole entry): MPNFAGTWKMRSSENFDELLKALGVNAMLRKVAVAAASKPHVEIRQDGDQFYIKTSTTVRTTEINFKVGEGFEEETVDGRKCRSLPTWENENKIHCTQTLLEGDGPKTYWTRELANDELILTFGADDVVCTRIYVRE
Procedure: The total fixation (nonspecific +specific) (curva a), is obtained by incubation of increasing concentrations (up to a maximum of 50 nM) of the compound of the present invention with a constant quantity (0.3 ml) of a homogenate of rat testicles (organ rich in cRABP). […] An incubation time for 2 hours is necessary for the establishment of equilibrium conditions.
Once equilibrium is reached, the cRABP-tritiated ligand complex is separated from the nonlinked ligand by filtration on an exclusion gel Sephadex G25 column (Bio-Rad econo columns, 0.5×20 cm): the complex is eluted (elution peak at 2.5 ml), while the nonlinked ligand is retained in total on the column. A total separation is thus effected between the linked and nonlinked product. The eluation is made directly in the scintillation tubes and the radioactivity is measured by counting.
On FIG. 1, there is represented, on the abscissa, the initial concentrations of the ligand being studied, and on the ordinate, the concentrations at equilibrium of the ligand-receptor complex.
The difference between curves a (total fixation) and c (nonspecific fixation) gives the curve of specific fixation, curve b. The analysis of this curve provides the dissociation constant at equilibrium, (Kd), which is the concentration of product necessary for 50% saturation of the soluble receptor. This constant is a measure of the affinity of the ligand for its receptor, Kd being inversely proportional to affinity, (the weaker Kd is, the greater is the affinity).

[2] = biological target: T1, cRABP (cellular Retinoic Acid-Binding Protein); experiment: Competition test of cold ligand against radioactive ligand for fixation on cRABP
Procedure: These competition tests are carried out in the following manner: a fixed amount of the radioactive ligand (corresponding essentially to the half-saturation of the fixed amount of receptor which will be employed), is mixed with increasing quantities of cold ligand (nonradioactive). The receptor is then added and there is determined the amount of radioactive ligand fixed at equilibrium (in % of initial fixation in the absence of cold ligand, for the amount of receptor considered).
Starting from the competition curves of FIGS. 2 to 7, there is determined in each case the IC50 (concentration of cold ligand reducing the attachment of 50% of the tritiated ligand). This IC50 value permits the calculation in each case of the dissociation constant at equilibrium (Kd) for the cold ligand.

Row | Compound | nonspecific fixation (% of the total fixation) [1] | Kd [2] | also measured
1 | [3H]c1cc2c(cc1-c1cc3ccc(C(=O)O)cc3s1)C(C)(C)CCC2(C)C [Example 1, 2-(3-^3 H-5,6,7,8-tetrahydro-5,5,8,8-tetramethyl-2-naphthyl)-6-benzo [b] thiophene carboxylic acid] | less than 10% | – | nonspecific fixation (character) ([1]; in the concentration range employed (up to 50 nM)): linear and nonsaturable; specific fixation (character) ([1]; saturation test, rat testicle homogenate): saturable and reversible; Kd ([1]; saturation test, rat testicle homogenate, 2 hours incubation, nonlinear regression (Clark equation), read-out: Kd (dissociation constant at equilibrium)): 2.7 ± 0.5 nM
2 | C/C(=C\c1ccc(C(=O)O)cc1)c1ccc2c(c1)C(C)(C)CCC2(C)C [compound B] | – | 16 nM | Kd ([2]; Kd of the cold ligand, radioactive ligand: tritiated retinoic acid, calculated from IC50 of competition curve): 20 nM
3 | CC1(C)CCC(C)(C)c2cc(-c3cc4ccc(C(=O)O)cc4s3)ccc21 [compound A, 2-(5,6,7,8-tetrahydro-5,5,8,8-tetramethyl-2-naphthyl)-6-benzo [b] thiophene carboxylic acid] | – | 6 nM | –
4 | CC1=C(/C=C/C(C)=C/C=C/C(C)=C/C(=O)O)C(C)(C)CCC1 [retinoic acid] | approximately 25% | – | –
